Experimental data from patent US4912102A, “Analogs of naphtho[1,2-β] [1,4] thiazepin-4(5H)-one” (Hoffmann-La Roche Inc., priority 1988, dated 1990).
Where a name gives a salt, the structure may show the parent alone. Read-outs that look alike come from different tables or passages of the source.

Assays:
[1] = system: lipid peroxidation in liposomes prepared from native rat cardiac lipid; assay: Anti-peroxidative activity (superoxide-dependent, iron-promoted lipid peroxidation, MDA-like products); type: biochemical; details: for Anti-Peroxidative Activity % Inhibition (1 μM) / IC50: 60 minutes at 37° C.
Experimental: An in vitro assay system to measure antiperoxidative activity is done in two steps: (A) lipid peroxidation is triggered by a free-radical generating system that replicates the superoxide-dependent, iron-promoted Haber-Weiss reaction, and (B) peroxidation is measured spectrophotometrically as the production of malondialdehyde-like products (MDA). Liposomes prepared from the native rat cardiac lipid are incubated with hypoxanthine, xanthine oxidase, and Fe· ADP chelate, and a test substance or buffer in glass tubes for 60 minutes at 37° C. The amount of peroxidation is determined by adding a thiobarbituric acid-reaction mixture to the tubes, heating to 80° C. for 30 minutes and reading the pink adduct at 530 nm.

[2] = system: Guinea Pig Ileal Longitudinal Smooth Muscle; assay: Inhibition of K+-induced tonic contraction, guinea pig ileum assay (calcium channel blocking activity); type: cell-based; details: for activity in the guinea pig ileum test: doses up to 10^-4 M; for IC50: tonic contraction, 80 mM K+ challenge, 37° C., read-out: Inhibition of K^+-Induced Contractile Responses, IC50, Tonic
Experimental: Male guinea-pigs weighing from 300-400 grams were stunned and bled. The abdomen was opened and 10-15 cm of terminal ileum was carefully removed and cleaned and placed in Tyrode's Solution of the following composition: NaCl (8 g/l), KCl (0.2 g/l), MgCl2 (0.1 g/l), CaCl2 (0.2 g/l). NaH2 PO4 (0.05 g/l), NaHCO3 (1.0 g/l) and Glucose (1 g/l). The solution was maintained at 37° C. and gassed with 95% O2 and 5% CO2. Portions of the ileum were placed over a glass rod, a shallow incision was made the length of the mesenteric attachment just severing the outer-longitudinal muscle layer. The longitudinal muscle was separated from the underlying circular muscle by gentle dissection (Rang. H. P. Annals. of New York Academy of Science, vol. 144, page 756, 1964). The tissue was fixed at one end to a tissue holder, the other end was connected by a thread to a force transducer and suspended in a muscle bath containing Tyrode's Solution maintained at 37° C. and gassed with 95% O2 and 5% CO2. An initial tension of 500 mg was applied and the tissue allowed to equilibrate for 60 minutes prior to the start of the study. During this period the tissue was washed every 16 minutes. Each preparation, at 16 minute intervals, was challenged with KCl sufficient to yield a bath K+ concentration of 80 mMK for 2 minutes, then washed with fresh solution. The 16 minute interval between K+ challenges was maintained throughout the study. Upon stabilization of the responses to the K+ challenge the test compound (potential calcium entry antagonist) was introduced into the bath 2 minutes prior to and during the 2 minute exposure to K+ after which the bath was cleared and washed with fresh solution. Logarithmically increasing doses (up to 10^-4 M) of the potential antagonist were administered as the study progressed. The measure of a compound's ability to inhibit the tonic contraction of muscle is a measure of its activity as a calcium channel blocking agent.

Row | Structure (SMILES) | activity in the anti-peroxidative test [1] | IC50 [1] | activity in the guinea pig ileum test [2] | IC50 ([2]; Cavia porcellus) | also measured
1 | COc1ccc([C@@H]2Sc3c(ccc4ccccc34)N(CCN(C)C)C(=O)[C@@H]2OC(=O)C2(C)CCc3c(cc(C(C)C)c(O)c3C(C)C)O2)cc1 (single isomer, unassigned; (+)) [Example 17 isomer "A", [(+)-Cis-3(2α or 2β)]-2,3-dihydro-3-[[[3,4-dihydro-6-hydroxy-2-methyl-5,7-bis(1-methylethyl)-2H-1-benzopyran-2-yl]carbonyl]oxy]-5-[2-(dimethylamino)ethyl]-2-(4-methoxyphenyl)naphtho[1,2-b][1,4]thiazepin-4(5H)-one (E)-2-butenedioate monohydrate] | found to be active | < 1 µM | not found to be active |  | Anti-Peroxidative Activity % Inhibition (1 μM) ([1]; monohydrate): 58.5%
2 | CNCCN1C(=O)[C@H](O)[C@H](c2ccc(OC)cc2)Sc2c1ccc1ccccc21 (relative stereo) [Compound C] |  |  |  |  | IC50 [2]: 7 µM
3 | COc1ccc([C@@H]2Sc3c(ccc4ccccc34)N(CCN(C)C)C(=O)[C@@H]2OC(=O)C2(C)CCc3c(cc(C(C)C)c(O)c3C(C)C)O2)cc1 (single isomer, unassigned; (+)) [Example 17 isomer "B", [(+)-cis-3(2alpha, or 2beta)]-2,3-dihydro-3-[[[3,4-dihydro-6-hydroxy-2-methyl-5,7-bis(1-methylethyl)-2H-1-benzopyran-2-yl]carbonyl]oxy]-5-[2-(dimethylamino)ethyl]-2-(4-methoxyphenyl)naphtho[1,2-b][1,4]thiazepin-4(5H)-one] |  | < 1 µM | not found to be active |  | Anti-Peroxidative Activity % Inhibition (1 μM) [1]: 59.6%
4 | COc1ccc([C@@H]2Sc3c(ccc4ccccc34)N(CCN(C)C)C(=O)[C@@H]2OC(=O)C2(C)CCc3c(cc(C(C)C)c(O)c3C(C)C)O2)cc1 (relative stereo) [Example 15 isomer "B", [(±)-cis-3(2alpha or 2beta)]-2,3-dihydro-3-[[[3,4-dihydro-6-hydroxy-2-methyl-5,7-bis(1-methylethyl)-2H-1-benzopyran-2-yl]carbonyl]oxy]-5-[2-(dimethylamino)ethyl]-2-(4-methoxyphenyl)naphtho[1,2-b][1,4]thiazepin-4(5H)-one] |  | < 1 µM |  |  | Anti-Peroxidative Activity % Inhibition (1 μM) ([1]; listed as drawing 27, 1 µM): 66.7%
5 | COc1ccc([C@@H]2Sc3c(ccc4ccccc34)N(CCN(C)C)C(=O)[C@@H]2OC(=O)c2cccnc2)cc1 (relative stereo) [Compound M, (±)-cis-2,3-dihydro-2-(4-methoxyphenyl)-5-[2-(dimethylamino)ethyl]-3-[(3-pyridinylcarbonyl)oxy]naphtho[1,2-b][1,4]thiazepin-4(5H)-one dihydrochloride (4:5) hydrate] |  |  |  | 16 µM | 
6 | CNCCN1C(=O)[C@H](OC(C)=O)[C@H](c2ccc(OC)cc2)Sc2c1ccc1ccccc21 (relative stereo) [Compound D] |  |  |  |  | IC50 [2]: 3.5 µM
7 | COc1ccc([C@@H]2Sc3c(ccc4ccccc34)N(CCN(C)C)C(=O)[C@@H]2OC(=O)C2(C)CCc3c(cc(C(C)C)c(O)c3C(C)C)O2)cc1 (relative stereo) [Example 15 isomer "A", [(±)-cis-3(2alpha or 2beta)]-2,3-dihydro-3-[[[3,4-dihydro-6-hydroxy-2-methyl-5,7-bis(1-methylethyl)-2H-1-benzopyran-2-yl]carbonyl]oxy]-5-[2-(dimethylamino)ethyl]-2-(4-methoxyphenyl)naphtho[1,2-b][1,4]thiazepin-4(5H)-one] | found to be active | < 1 µM |  |  | Anti-Peroxidative Activity % Inhibition (1 μM) ([1]; listed as drawing 26, 1 µM): 62.6%
8 | COc1ccc([C@@H]2Sc3c(ccc4ccccc34)N(CCN(C)C)C(=O)[C@@H]2OC(=O)c2ccccc2O)cc1 (racemic) [Compound F, (±)-cis-2,3-dihydro-3-[(2-hydroxybenzoyl)oxy]-5-[2-(dimethylamino)ethyl]-2-(4-methoxyphenyl)naphtho[1,2-b][1,4]thiazepin-4(5H)-one hydrochloride] |  |  |  | 45 µM | 
9 | COc1ccc([C@@H]2Sc3c(ccc4ccccc34)N(CCN(C)C)C(=O)[C@@H]2OC(=O)C2(C)CCc3c(C)c(O)c(C)c(C)c3O2)cc1 (relative stereo) [Example 18, [(+)-cis-3(2alpha and 2beta)1-2,3-Dihydro-3-[[(3,4-dihydro-6-hydroxy-2,5,7,8-tetramethyl-2H-1-benzopyran-2-yl)carbonyl]oxy]-2-(4-methoxyphenyl)-5-[2-(dimethylamino)ethyl]naphtho[1,2-b][1,4]thiazepin-4(5H)-one] | active |  | not found to be active |  | 
10 | COc1ccc([C@@H]2Sc3c(ccc4ccccc34)N(CCN(C)C)C(=O)[C@@H]2OC(=O)c2cc(OC)c(OC)c(OC)c2)cc1 (racemic) [Compound J, (±)-cis-2,3-dihydro-2-(4-methoxyphenyl)-3-[(3,4,5-trimethoxybenzoyl)oxy]-5-[2-(dimethylamino)ethyl]naphtho [1,2-b][1,4]thiazepin-4(5H)-one hydrochloride] |  |  |  | 70 µM | 
11 | COc1ccc([C@@H]2Sc3c(ccc4ccccc34)N(CCN(C)C)C(=O)[C@@H]2OC(=O)c2ccc(OC)c(OC)c2)cc1 (relative stereo) [Example 4, (±)-cis-3-[(3,4-Dimethoxybenzoyl)oxy]-2,3-dihydro-5-[2-(dimethylamino)ethyl]-2-(4-methoxyphenyl)naphtho][1,2-b][1,4]thiazepin-4(5H)-one] | active |  | not found to be active |  | 
12 | COc1ccc([C@@H]2Sc3c(ccc4ccccc34)N(CCN(C)C)C(=O)[C@@H]2OC(=O)c2cc(C(C)(C)C)c(O)c(C(C)(C)C)c2)cc1 (racemic) [Example 14, (±)-cis-2,3-Dihydro-3-[[4-hydroxy-3,5-bis(1,1-dimethylethyl)benzoyl]oxy]-2-(4-methoxyphenyl)-5-[2-(dimethylamino)ethyl]naphtho[1,2-b][1,4]thiazepin-4(5H)-one] | active |  | not found to be active |  | 
13 | COc1ccc([C@@H]2Sc3c(ccc4ccccc34)N(CCN(C)C)C(=O)[C@@H]2OC(=O)c2ccccc2OC(C)=O)cc1 (relative stereo) [Compound E, (±)-cis-3-[[(2-acetyloxy)benzoyl]oxy]-2,3-dihydro-5-[2-(dimethylamino)ethyl]-2-(4-methoxyphenyl)naphtho[1,2-b][1,4]thiazepin-4(5H)-one hydrochloride] |  |  |  | 13 µM | 
